Data taken from ChEMBL document CHEMBL4699491, “Identification of TNO155, an Allosteric SHP2 Inhibitor for the Treatment of Cancer” (J Med Chem, 2020).
≈ marks a conversion by molar mass, not a printed value.

Experiments:
KYSE-520 cell line = test: Antiproliferative activity against human KYSE-520 cells; type: functional, cell-based
[1] = Toxicity in NU/NU mouse xenografted with human KYSE-520 cells assessed as induction of body weight loss eat 2.5 to 20 mg/kg, po BID for 2 weeks; type: organism-based; details: in vivo, 336 h, dose 2.5-20 mg/kg
[2] = Tmax in Sprague-Dawley rat at 5 mg/kg, po by LC-MS/MS analysis; type: ADME, organism-based; details: in vivo
[3] = Clearance in Sprague-Dawley rat at 1 mg/kg, iv by LC-MS/MS analysis; type: ADME, organism-based; details: in vivo
[4] = Terminal half life in C57BL/6 mouse at 1 mg/kg, iv by LC-MS/MS analysis; type: ADME, organism-based; details: in vivo, read-out: beta t1/2 (converted)
physchem [5] = details: aqueous, pH 6.8
Description: Aqueous solubility of the compound at pH 6.8

[6] = Cmax/dose in beagle dog at 1 mg/kg, po by LC-MS/MS analysis; type: ADME, organism-based, Canis lupus familiaris; details: in vivo
[7] = AUC/dose in Sprague-Dawley rat at 5 mg/kg, po by LC-MS/MS analysis; type: ADME, organism-based; details: in vivo
[8] = AUC/dose in C57BL/6 mouse at 5 mg/kg, po by LC-MS/MS analysis; type: ADME, organism-based; details: in vivo
[9] = Terminal half life in Sprague-Dawley rat at 1 mg/kg, iv by LC-MS/MS analysis; type: ADME, organism-based; details: in vivo, read-out: beta t1/2 (converted)
[10] = Volume of distribution at steady state in Sprague-Dawley rat at 1 mg/kg, iv by LC-MS/MS analysis; type: ADME, organism-based; details: in vivo, read-out: Vdss
[11] = AUC/dose in beagle dog at 1 mg/kg, po by LC-MS/MS analysis; type: ADME, organism-based, Canis lupus familiaris; details: in vivo
[12] = Terminal half life in cynomolgus monkey at 0.3 mg/kg, iv by LC-MS/MS analysis; type: ADME, organism-based, Macaca fascicularis; details: in vivo, read-out: beta t1/2 (converted)
[13] = AUC/dose in cynomolgus monkey at 0.3 mg/kg, iv by LC-MS/MS analysis; type: ADME, organism-based, Macaca fascicularis; details: in vivo
Cytochrome P450 3A4 = Cytochrome P450 3A4 (Homo sapiens, UniProt P08684); test: Inhibition of CYP3A4 (unknown origin); type: ADME
[14] = Protein binding in beagle dog plasma; type: ADME, cell-free, Canis lupus familiaris; details: read-out: PPB (converted)
[15] = Oral bioavailability in C57BL/6 mouse at 5 mg/kg by LC-MS/MS analysis; type: ADME, organism-based; details: in vivo
[16] = Clearance in cynomolgus monkey at 0.3 mg/kg, iv by LC-MS/MS analysis; type: ADME, organism-based, Macaca fascicularis; details: in vivo
[17] = Oral bioavailability in Sprague-Dawley rat at 5 mg/kg by LC-MS/MS analysis; type: ADME, organism-based; details: in vivo
physchem [18] = details: octanol/water
Description: Distribution coefficient, logD of the compound

[19] = Cmax/dose in Sprague-Dawley rat at 5 mg/kg, po by LC-MS/MS analysis; type: ADME, organism-based; details: in vivo
Cytochrome P450 2D6 = Cytochrome P450 2D6 (Homo sapiens, UniProt P10635); test: Inhibition of CYP2D6 (unknown origin); type: ADME
[20] = Toxicity in mouse 3T3 cells under irradiation by NRU phototoxicity test; type: cell-based
[21] = Tmax in cynomolgus monkey at 1 mg/kg, po by LC-MS/MS analysis; type: ADME, organism-based, Macaca fascicularis; details: in vivo
[22] = Clearance in beagle dog at 0.2 mg/kg, iv by LC-MS/MS analysis; type: ADME, organism-based, Canis lupus familiaris; details: in vivo
[23] = Oral bioavailability in beagle dog at 1 mg/kg by LC-MS/MS analysis; type: ADME, organism-based, Canis lupus familiaris; details: in vivo
[24] = Terminal half life in beagle dog at 0.2 mg/kg, iv by LC-MS/MS analysis; type: ADME, organism-based, Canis lupus familiaris; details: in vivo, read-out: beta t1/2 (converted)
[25] = target: Voltage-gated inwardly rectifying potassium channel KCNH2 (Homo sapiens, UniProt Q12809)
Description: Inhibition of human ERG by Q-patch assay

[26] = Protein binding in C57BL/6 mouse plasma; type: ADME, cell-free; details: read-out: PPB (converted)
[27] = Protein binding in Sprague-Dawley rat plasma; type: ADME, cell-free; details: read-out: PPB (converted)
[28] = Tmax in beagle dog at 1 mg/kg, po by LC-MS/MS analysis; type: ADME, organism-based, Canis lupus familiaris; details: in vivo
[29] = Oral bioavailability in cynomolgus monkey at 1 mg/kg by LC-MS/MS analysis; type: ADME, organism-based, Macaca fascicularis; details: in vivo
Cytochrome P450 2C9 = Cytochrome P450 2C9 (Homo sapiens, UniProt P11712); test: Inhibition of CYP2C9 (unknown origin); type: ADME
[30] = AUC/dose in C57BL/6 mouse at 1 mg/kg, iv by LC-MS/MS analysis; type: ADME, organism-based; details: in vivo
[31] = Volume of distribution at steady state in beagle dog at 0.2 mg/kg, iv by LC-MS/MS analysis; type: ADME, organism-based, Canis lupus familiaris; details: in vivo, read-out: Vdss
[32] = Volume of distribution at steady state in C57BL/6 mouse at 1 mg/kg, iv by LC-MS/MS analysis; type: ADME, organism-based; details: in vivo, read-out: Vdss
[33] = Tmax in C57BL/6 mouse at 5 mg/kg, po by LC-MS/MS analysis; type: ADME, organism-based; details: in vivo
[34] = Protein binding in cynomolgus monkey plasma; type: ADME, cell-free, Macaca fascicularis; details: read-out: PPB (converted)
[35] = AUC/dose in beagle dog at 0.2 mg/kg, iv by LC-MS/MS analysis; type: ADME, organism-based, Canis lupus familiaris; details: in vivo
[36] = AUC/dose in cynomolgus monkey at 1 mg/kg, po by LC-MS/MS analysis; type: ADME, organism-based, Macaca fascicularis; details: in vivo
[37] = Volume of distribution at steady state in cynomolgus monkey at 0.3 mg/kg, iv by LC-MS/MS analysis; type: ADME, organism-based, Macaca fascicularis; details: in vivo, read-out: Vdss
[38] = Cmax/dose in cynomolgus monkey at 1 mg/kg, po by LC-MS/MS analysis; type: ADME, organism-based, Macaca fascicularis; details: in vivo
physchem [39] = details: octanol/water; remark: listed apart in the source
Description: Lipophilicity, logP of the compound

[40] = Cmax/dose in C57BL/6 mouse at 5 mg/kg, po by LC-MS/MS analysis; type: ADME, organism-based; details: in vivo
[41] = AUC/dose in Sprague-Dawley rat at 1 mg/kg, iv by LC-MS/MS analysis; type: ADME, organism-based; details: in vivo
NCI-H358 = test: Antiproliferative activity against human NCI-H358 cells; type: functional, cell-based
[42] = target: T1, Tyrosine-protein phosphatase non-receptor type 11 (Homo sapiens, UniProt Q06124)
T1 sequence (Q06124 whole entry): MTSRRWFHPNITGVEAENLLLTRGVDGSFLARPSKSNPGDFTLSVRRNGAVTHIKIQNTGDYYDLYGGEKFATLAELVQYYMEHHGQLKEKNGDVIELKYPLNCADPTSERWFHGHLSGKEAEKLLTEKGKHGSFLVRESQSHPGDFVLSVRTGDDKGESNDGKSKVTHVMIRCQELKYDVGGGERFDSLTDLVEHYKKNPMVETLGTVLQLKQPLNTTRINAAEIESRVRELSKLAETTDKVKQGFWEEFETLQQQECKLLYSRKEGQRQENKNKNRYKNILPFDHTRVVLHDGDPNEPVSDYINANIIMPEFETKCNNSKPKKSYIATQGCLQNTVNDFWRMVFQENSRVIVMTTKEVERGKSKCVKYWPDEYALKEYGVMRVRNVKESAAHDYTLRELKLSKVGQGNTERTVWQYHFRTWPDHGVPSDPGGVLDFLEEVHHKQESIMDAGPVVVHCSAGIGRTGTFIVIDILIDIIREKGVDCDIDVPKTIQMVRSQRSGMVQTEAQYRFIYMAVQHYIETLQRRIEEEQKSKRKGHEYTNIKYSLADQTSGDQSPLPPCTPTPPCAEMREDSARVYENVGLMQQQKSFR
Description: Allosteric inhibition of human SHP2 in human KYSE-520 cells assessed as reduction in ERK1/2 phosphorylation by fluorescence based assay

[43] = target: T2, Tyrosine-protein phosphatase non-receptor type 11 (Homo sapiens) (UniProt Q06124); details: filed as negative allosteric modulator
T2 sequence (whole entry): T1 sequence (Q06124 whole entry)

[44] = target: T1, Tyrosine-protein phosphatase non-receptor type 11; test: Allosteric inhibition of 6x-histidine tagged human SHP2 (Met1-L525 residues) expressed in Escherichia coli BL21 Star (DE3) using IRS1_pY1172(dPEG8)[…] incubated for 30 mins by fluorescence based DIFMUP assay
MIA PaCa-2 = test: cells; details: Homo sapiens
Description: Antiproliferative activity against human MIA PaCa-2 cells

Sequence of Voltage-gated inwardly rectifying potassium channel KCNH2 (Q12809 whole entry): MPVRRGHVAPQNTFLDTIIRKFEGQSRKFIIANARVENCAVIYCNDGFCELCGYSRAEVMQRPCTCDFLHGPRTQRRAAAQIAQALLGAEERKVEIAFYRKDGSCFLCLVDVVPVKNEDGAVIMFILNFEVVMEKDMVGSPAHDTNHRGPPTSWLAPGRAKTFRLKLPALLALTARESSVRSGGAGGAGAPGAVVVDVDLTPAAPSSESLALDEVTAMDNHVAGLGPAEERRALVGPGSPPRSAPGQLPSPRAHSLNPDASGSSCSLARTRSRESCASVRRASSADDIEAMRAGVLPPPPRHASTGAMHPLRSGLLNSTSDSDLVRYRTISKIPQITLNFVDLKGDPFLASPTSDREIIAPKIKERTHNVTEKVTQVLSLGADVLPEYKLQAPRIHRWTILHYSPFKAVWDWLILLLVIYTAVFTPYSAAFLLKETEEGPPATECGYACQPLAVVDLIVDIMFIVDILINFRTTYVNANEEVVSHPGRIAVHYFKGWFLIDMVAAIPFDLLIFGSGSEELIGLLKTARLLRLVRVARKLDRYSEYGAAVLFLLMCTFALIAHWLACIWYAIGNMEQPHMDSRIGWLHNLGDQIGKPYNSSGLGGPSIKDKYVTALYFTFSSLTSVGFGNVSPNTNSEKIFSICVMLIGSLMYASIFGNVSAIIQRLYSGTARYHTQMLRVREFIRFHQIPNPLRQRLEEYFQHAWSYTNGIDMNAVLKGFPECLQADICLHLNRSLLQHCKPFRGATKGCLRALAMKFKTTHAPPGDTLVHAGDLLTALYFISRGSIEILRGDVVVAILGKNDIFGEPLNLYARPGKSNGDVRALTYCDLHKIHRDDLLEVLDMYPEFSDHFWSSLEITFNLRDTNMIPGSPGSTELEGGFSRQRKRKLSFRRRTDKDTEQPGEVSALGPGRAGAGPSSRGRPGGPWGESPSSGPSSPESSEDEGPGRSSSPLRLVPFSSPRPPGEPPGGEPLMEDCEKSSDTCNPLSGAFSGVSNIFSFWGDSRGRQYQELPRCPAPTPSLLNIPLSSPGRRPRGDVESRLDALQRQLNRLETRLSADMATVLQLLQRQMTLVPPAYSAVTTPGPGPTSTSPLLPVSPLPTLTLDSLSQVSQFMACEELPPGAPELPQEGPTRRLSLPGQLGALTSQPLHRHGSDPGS
Sequence of Cytochrome P450 2C9 (P11712 whole entry): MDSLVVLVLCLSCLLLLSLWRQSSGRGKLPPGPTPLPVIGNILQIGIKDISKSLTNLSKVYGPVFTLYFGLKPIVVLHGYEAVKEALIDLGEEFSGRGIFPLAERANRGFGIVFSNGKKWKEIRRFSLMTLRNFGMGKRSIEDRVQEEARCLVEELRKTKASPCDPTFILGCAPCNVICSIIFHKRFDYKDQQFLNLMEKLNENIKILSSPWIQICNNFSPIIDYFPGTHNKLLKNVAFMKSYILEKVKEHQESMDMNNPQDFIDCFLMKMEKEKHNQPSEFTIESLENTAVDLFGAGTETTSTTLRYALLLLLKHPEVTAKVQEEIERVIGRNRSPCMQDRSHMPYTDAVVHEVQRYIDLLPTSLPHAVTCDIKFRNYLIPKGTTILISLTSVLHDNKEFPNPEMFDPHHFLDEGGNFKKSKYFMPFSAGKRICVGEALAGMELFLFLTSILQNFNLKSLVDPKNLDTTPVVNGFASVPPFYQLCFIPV
Sequence of Cytochrome P450 2D6 (P10635 whole entry): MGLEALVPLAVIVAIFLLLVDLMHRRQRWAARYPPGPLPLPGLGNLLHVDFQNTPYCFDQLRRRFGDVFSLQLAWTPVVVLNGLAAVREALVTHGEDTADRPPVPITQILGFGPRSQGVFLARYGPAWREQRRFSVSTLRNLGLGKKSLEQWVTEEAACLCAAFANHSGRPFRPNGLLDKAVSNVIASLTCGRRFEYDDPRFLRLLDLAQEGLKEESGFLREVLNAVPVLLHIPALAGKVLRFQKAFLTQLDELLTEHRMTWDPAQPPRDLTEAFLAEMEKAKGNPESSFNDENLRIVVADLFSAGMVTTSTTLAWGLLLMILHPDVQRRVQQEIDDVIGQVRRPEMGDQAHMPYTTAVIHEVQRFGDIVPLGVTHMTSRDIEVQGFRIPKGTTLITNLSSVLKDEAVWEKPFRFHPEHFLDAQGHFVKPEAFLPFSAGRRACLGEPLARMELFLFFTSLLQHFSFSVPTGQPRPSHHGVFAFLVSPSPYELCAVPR
Sequence of Cytochrome P450 3A4 (P08684 whole entry): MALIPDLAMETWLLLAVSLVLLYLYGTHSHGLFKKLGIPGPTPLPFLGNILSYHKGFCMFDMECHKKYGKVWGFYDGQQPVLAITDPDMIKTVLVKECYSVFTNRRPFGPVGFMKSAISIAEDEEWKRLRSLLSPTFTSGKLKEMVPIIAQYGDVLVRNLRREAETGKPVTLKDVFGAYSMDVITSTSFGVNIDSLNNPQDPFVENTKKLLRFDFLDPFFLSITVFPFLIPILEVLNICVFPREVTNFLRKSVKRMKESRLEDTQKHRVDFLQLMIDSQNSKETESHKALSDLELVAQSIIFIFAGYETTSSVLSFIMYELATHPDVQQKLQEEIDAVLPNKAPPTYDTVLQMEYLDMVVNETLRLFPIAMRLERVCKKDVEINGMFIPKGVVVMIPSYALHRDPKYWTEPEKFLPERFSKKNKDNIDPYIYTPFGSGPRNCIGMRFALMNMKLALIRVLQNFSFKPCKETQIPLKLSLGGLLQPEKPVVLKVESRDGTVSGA

CC1(CN)CCN(c2cnc(-c3cccc(Cl)c3Cl)c(N)n2)CC1
IC50 (KYSE-520 cell line; Homo sapiens, KYSE-520): 5540 nM

CC(=O)Nc1cccc(-n2c(=O)n(C3CC3)c(=O)c3c(Nc4ccc(I)cc4F)n(C)c(=O)c(C)c32)c1 [TRAMETINIB]
IC50 (KYSE-520 cell line; Homo sapiens, KYSE-520): 10 nM

C[C@@H]1OCC2(CCN(c3cnc(Sc4ccnc(N)c4Cl)c(N)n3)CC2)[C@@H]1N [BATOPROTAFIB]
Activity [1]: Non-Toxic
Tmax [2]: 1 h
clearance [3]: 15 mL/min/kg
half-life [4]: 2 h
solubility (physchem [5]): 736 µM (≈ 311 µg/mL)
Cmax/dose [6]: 1207 nM
AUC/dose [7]: 2483 nM·h
AUC/dose [8]: 1190 nM·h
half-life [9]: 8 h
Vd [10]: 7 L/kg
AUC/dose [11]: 15854 nM·h
half-life [12]: 9 h
AUC/dose [13]: 6438 nM·h
inhibition (INH) (Cytochrome P450 3A4): Not Active
fraction unbound [14]: 0.36
bioavailability [15]: 78%
clearance [16]: 6 mL/min/kg
bioavailability [17]: 100%
logD (physchem [18]): 0.6
Cmax/dose [19]: 657 nM
inhibition (INH) (Cytochrome P450 2D6): Not Active
IC50 [20]: 666000 nM
Tmax [21]: 2 h
clearance [22]: 4 mL/min/kg
bioavailability [23]: > 100%
half-life [24]: 9 h
IC50 [25]: > 30000 nM
fraction unbound [26]: 0.24
fraction unbound [27]: 0.19
Tmax [28]: 2 h
bioavailability [29]: 60%
inhibition (INH) (Cytochrome P450 2C9): Not Active
AUC/dose [30]: 1530 nM·h
Vd [31]: 3 L/kg
Vd [32]: 3 L/kg
Tmax [33]: 0.8 h
IC50 (KYSE-520 cell line; kyse-520): 100 nM
fraction unbound [34]: 0.39
AUC/dose [35]: 10690 nM·h
AUC/dose [36]: 3848 nM·h
Vd [37]: 4 L/kg
Cmax/dose [38]: 286 nM
logP (physchem [39]): 1.6
Cmax/dose [40]: 357 nM
AUC/dose [41]: 2407 nM·h

C=CC(=O)N1CCN(c2nc(=O)n(-c3c(C)ccnc3C(C)C)c3nc(-c4c(O)cccc4F)c(F)cc23)[C@@H](C)C1 [SOTORASIB]
IC50 (NCI-H358): < 30 nM

CC1(CN)CCN(c2cnc(Sc3ccnc(N)c3Cl)c(N)n2)CC1
solubility (physchem [5]): 437 µM (≈ 166 µg/mL)
IC50 [42]: 123 nM
logD (physchem [18]): -0.9
IC50 [25]: > 30000 nM
IC50 (KYSE-520 cell line; Homo sapiens, KYSE-520): 851 nM
logP (physchem [39]): 2

CC1(CN)CCN(c2cnc(Sc3cccc(N)c3Cl)c(N)n2)CC1
IC50 [42]: 89 nM

Nc1nc2ccc(Sc3cccc(Cl)c3Cl)nc2[nH]1
ΔTm [43]: 1.5 °C

CC1(N)CCN(c2cnc(Sc3cccnc3C(F)(F)F)c(N)n2)CC1
solubility (physchem [5]): 85 µM (≈ 32.7 µg/mL)
IC50 [42]: 339 nM
logD (physchem [18]): -0.5
IC50 [25]: 17400 nM
IC50 [44]: 67 nM
logP (physchem [39]): 2

CC1(CN)CCN(c2cnc(Sc3cccnc3C(F)(F)F)c(N)n2)CC1
IC50 (KYSE-520 cell line; Homo sapiens, KYSE-520): 4050 nM

Nc1nc(N2CCC3(CC2)COC[C@H]3N)cnc1Sc1ccnc(N)c1Cl
solubility (physchem [5]): 787 µM (≈ 321 µg/mL)
IC50 [42]: 99 nM
logD (physchem [18]): 0.2
IC50 [25]: > 25000 nM
IC50 (KYSE-520 cell line; Homo sapiens, KYSE-520): 665 nM
logP (physchem [39]): 1.1

C=C(F)C(=O)N1CCN(c2nc(OC[C@@H]3CCCN3C)nc3c2CCN(c2cccc4cccc(Cl)c24)C3)C[C@@H]1CC#N [ADAGRASIB]
IC50 (MIA PaCa-2): 100 nM
